What is called inhibition is the relative decrease from the control value, in per cent.

Values joined by “and” are separate entries in the source; they are usually repeats but may differ in a detail not shown here. Equal entries are not always repeated. “Also recorded” adds a separate entry of the source. Peptide text beside a SMILES is read from it.

One data set concerns the target T1, human CB1 receptor (Homo sapiens, UniProt P21554).
T1 construct: expressed in transfected cells; host or cells: CHO cells
Kind of data set: In vitro radioligand binding, [3H] CP 55940, recombinant CHO cells. How it is done: In vitro binding assays were performed using recombinant CHO cells expressing the human CB1 receptor and the [3H]
Results are expressed as the percentage of binding of the specific control according to formula: […]
And the percentual inhibition of binding of specific control obtained in the presence of the compound of the invention is:
IC50 values (concentration that causes half of maximal inhibition of specific control binding) and Hill (nH) coefficients were determined by nonlinear regression of the competition curves generated with the mean values of the replicates using the Hill equation:
Where Y=specific binding, A=asymptotic left of curve, D=asymptotic right of curve, C=compound concentration, C50=IC50 and nH=curve coefficient/slope factor. This analysis was performed using the Hill software validated by comparison with data generated by Sigmaplot 4.0 software. Inhibition constants (Ki) were calculated using the equation of Chen Prusoff:
Where L=concentration of the radioligand in the assay; KD=affinity of the radioligand for the receptor. A graph is used to determine the KD.

In the next data set the test system is pilocarpine model. Briefly: Pilocarpine model, oral pre-treatment (salivation, first signal, seizure, death/survival). It is filed as in vivo, Mus musculus. On the set-up: time of occurrence of the first seizure: unit not given here. The protocol: In some examples, the neuromodulatory/neuroprotective/anticonvulsive effects of the composition of the invention have been evaluated in vivo by oral administration to animals. The pharmaceutical composition of the invention was administered to mammals (Mus musculus or mouse) with an oral dose of treatment with different embodiments of the compound of the invention, compared to other compounds or to saline control. In these experiments, the test compounds were administered orally 10 minutes prior to (intraperitoneal) administration of pilocarpine. Pilocarpine hydrochloride (320 mg/kg, Merck), dissolved in 0.9% sterile saline, was given intraperitoneally for induction of SE (status epileticus) (Turski et al., 1983). In the Turski model, the neurotoxic effects begin about 15-25 minutes after the injection of Pilo, with the occurrence of motor and limbic seizures, the animals evolving to a state of continuous (clonic) seizures that characterize SE Sanabria and Cavalheiro, 2000).
In this embodiment, the anticonvulsive effect of the composition of the invention prepared according to Example 2 was evaluated by prior administration of the inventive composition and subsequent administration of pilocarpine to animals. FIG. 4 presents the results of the pilocarpine model, indicating the time for the first salivation with the administration of control, cannabidiol (30 mg/kg), the compound of the invention R1-N-AA1-K-AA2-R2, in which embodiment is the tetrapeptide of SEQ ID No. 1 (500 μg/kg).
In this embodiment, the neuromodulatory effect of the composition of the invention prepared according to Example 2 was evaluated by prior administration of the inventive composition and subsequent administration of pilocarpine to animals. Other test compounds were also evaluated as described below. Administration of pilocarpine leads to severe brain injury, neurotoxicity and usually culminates in the death of the animals. This substance was used in the experiments described below but its harmful neuronal/encephalic effects were inhibited by the prior administration of the composition of the present invention: the vast majority of the animals subjected to these experiments had no symptoms related to brain lesions and survived without apparent damage, in contrast to groups of animals treated with other known substances.
The composition of the invention was prepared according to Example 2 with due concentration correction, for comparison of the effects of SEQ ID No. 1, SEQ ID No. 7 and NFK, such compounds having been previously administered to the animal groups.
In this embodiment, the anticonvulsant effect of different embodiments of the compound of the invention with the structure represented by SEQ ID No. 1, SEQ ID No. 7, NFK, FKF, FKL, as well as the NF, FK, KF and KL dipeptides were evaluated in the pilocarpine model.

Data set [1] is described as follows: Stability tests under extreme conditions (freezing 24 hours; heating at 100° C. for 10 minutes), HPLC. Format: physicochemical. The text has this: In the vertical axis the area of the HPLC peak is shown. […] Statistical significance data are also shown, the asterisks indicating: (*) P<0.05 vs Control (***) P<0.005 vs Control; (****) P<0.0001 vs Control.
The test system of the next data set is CB1 receptor. Briefly: Screening with anti-CB1 antibodies sensitive to activation/conformational changes, ELISA on Striatum membranes. To be noted: ligands 1 μM; Assay 1-5. It is filed as binding. The protocol:
Antibodies sensitive to CB1 receptor activation were generated and characterized by their specificities. For screening compounds, Striatum membranes (5 μg per well) were plated on NUNC-Immuno 96-well plates (Nalge-Nunc) and dried at room temperature. Membranes were washed with PBS (phosphate buffered saline) and incubated with or without different ligands (1 μM) and the extent of receptor recognition by the antibodies was measured by ELISA. The results of the tests are shown in Table 5, which indicates the % binding to the CB1 receptor in relation to control: […]
In general terms: ELISA stands for enzyme-linked immunosorbent assay.

For another data set, the target named is T2, human CB2 receptor (Homo sapiens, UniProt P34972).
T2 construct: expressed in transfected cells; host or cells: CHO cells
Kind of data set: In vitro radioligand binding, [3H] WIN55212-2, recombinant CHO cells. As to conditions: for % of inhibition of binding of specific control, 1st/2nd measurement: radioligand agonist WIN 55212-2. On the set-up: % of inhibition of binding of specific control, 1st/2nd measurement: unit of the concentration uncertain. How it is done:
(§1) In vitro binding assays were performed using recombinant CHO cells expressing human CB2 receptor and [3H]

Data set [2] concerns experimental autoimmune encephalomyelitis (EAE). Kind of data set: EAE model of Multiple Sclerosis, MOG induction, Endopeptidase 24.15 knockout mice. Format: in vivo. To be noted: 24.15 knock out mice, FIG. 25. The source says: In this embodiment, transgenic mice knockout of the Endopeptidase 24.15 gene were challenged with MOG (Myelin Oligodendrocyte Glycoprotein), with administration of the compound of the invention SEQ ID No. 1 or saline as a control. After the introduction of the disease, a daily evaluation of the symptoms was made, according to Table 11 below.

The test system of the next data set is pain threshold. Kind of data set: Pain threshold model, pressure apparatus on right paw. Format: in vivo, rats. As to conditions: for pain threshold, force: oral, 0.5 to 0.25 mg/kg, individual animals. The protocol: The compounds of the present invention have also been tested as analgesics or neuropathic pain modulators. To that end, the compounds PVNFKF, PVNFK, VNFKF, SEQ ID No. 1 were tested in the pain threshold model. The pain threshold was measured using a pressure apparatus (Ugo Basile, Italy), essentially as described (Randall and Selitto, 1957). Briefly, a force of increasing magnitude (16 g/s) was applied to the back of the right paw of rats. When animals react by kicking, the force in grams required to induce this response is the threshold of pain. Antinoniceptive activity was expressed as the increase in pain threshold compared to control animals.
The compounds of the invention were administered orally to the animals at doses of 0.5 to 0.25 mg/kg and saline was used as a control.

For data set [3], the target named is T3, recombinant human CB2 cannabinoid receptor (human, UniProt P34972 1-360).
T3 construct: whole, on cells; also called human CB2 receptor
Kind of data set: [3H]WIN 55212-2 radioligand displacement on CHO cells expressing human CB2. How it is done:
as §1

The mark [4] stands for this setting: FIG. 6, 500 μg/kg before pilocarpine.

T1 sequence (P21554 whole entry): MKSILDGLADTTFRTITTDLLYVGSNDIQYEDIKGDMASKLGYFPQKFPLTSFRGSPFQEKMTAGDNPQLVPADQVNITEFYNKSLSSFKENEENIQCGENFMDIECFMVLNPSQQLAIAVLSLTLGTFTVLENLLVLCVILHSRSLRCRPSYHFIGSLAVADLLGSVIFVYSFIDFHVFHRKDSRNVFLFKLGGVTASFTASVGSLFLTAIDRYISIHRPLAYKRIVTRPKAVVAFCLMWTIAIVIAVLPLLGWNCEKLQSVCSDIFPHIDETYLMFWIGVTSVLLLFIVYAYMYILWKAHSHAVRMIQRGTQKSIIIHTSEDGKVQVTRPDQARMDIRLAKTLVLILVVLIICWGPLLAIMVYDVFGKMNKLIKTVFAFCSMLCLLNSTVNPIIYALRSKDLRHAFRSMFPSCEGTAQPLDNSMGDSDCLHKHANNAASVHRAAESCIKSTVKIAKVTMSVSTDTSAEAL
T2 sequence (P34972 whole entry): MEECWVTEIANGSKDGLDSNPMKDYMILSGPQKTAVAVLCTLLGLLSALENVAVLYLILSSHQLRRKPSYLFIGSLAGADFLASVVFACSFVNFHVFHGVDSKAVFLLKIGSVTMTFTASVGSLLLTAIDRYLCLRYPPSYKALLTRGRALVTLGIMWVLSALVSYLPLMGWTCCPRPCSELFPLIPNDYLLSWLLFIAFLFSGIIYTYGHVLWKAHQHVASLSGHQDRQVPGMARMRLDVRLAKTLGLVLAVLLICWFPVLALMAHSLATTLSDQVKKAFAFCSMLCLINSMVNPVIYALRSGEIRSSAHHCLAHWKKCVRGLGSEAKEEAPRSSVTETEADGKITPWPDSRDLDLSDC
T3 sequence (P34972 whole entry): as above

For the molecule `CCCCCCC(C)(C)c1ccc([C@@H]2C[C@H](O)CC[C@H]2CCCO)c(O)c1` [CP 55940, reference compound], the nH on human CB1 receptor (reference radioligand agonist) worked out at 1.
As for `NCCCCC(NC(=O)C(Cc1ccccc1)NC(=O)C(N)CC(N)=O)C(=O)NC(Cc1ccccc1)C(=O)O` (stereo not drawn) [SEQ ID No. 1] (H-NFKF-OH; configuration not given here), the “time for first salivation vs control (significance)” value with pilocarpine model (FIG. 4, cannabidiol 30 mg/kg, SEQ ID No. 1 500 μg/kg) was “does not present statistical significance”. Further, in the data set on pilocarpine model (setting [4]), the “number of animals that died” value is given as “two” and the “remaining animals alive for more than a week” value is on record as 3 animals. Besides, in the data set on pilocarpine model (SEQ ID No. 1 500 μg/kg, cannabidiol 30 mg/kg), the “prostration and nasal bleeding” value is on record as “no occurrence of prostration or nasal bleeding; also recorded: non-occurrence of prostration or nasal bleeding”. The “time of occurrence of the first salivation” value in the data set on pilocarpine model (Table 1, oral, 10 minutes prior to pilocarpine 320 mg/kg i.p., individual animals) was 3.2 min and 1.83 min and 1.97 min and 2.73 min and 1.58 min. Further, the “time of occurrence of the first signal” value in the data set on pilocarpine model (Table 2, oral, 10 minutes prior to pilocarpine 320 mg/kg i.p., individual animals) is 12.33 min and 8.43 min and 10.23 min and 13.53 min and 9.9 min. Also, the “time of occurrence of the first seizure” value with pilocarpine model (Table 3, oral, 10 minutes prior to pilocarpine 320 mg/kg i.p., individual animals) was 17.88 and 15.17 and 19.95 and 15.18 and 16. The “time of death occurrence” value with pilocarpine model (Table 4, oral, 10 minutes prior to pilocarpine 320 mg/kg i.p., individual animals) is 18.92 min and 20 min and 15.18 min and 10.87 min. The “area of the HPLC peak, control” value in data set [1] (control sample, n=2) was 120. In addition, in data set [1] (freezing for 24 h), the “area of the HPLC peak after freezing” value was 100 and the “part lost or degraded by freezing” value was determined as 16.7%. Moreover, the “degradation upon heating (in words)” value in data set [1] (heating at 100° C. for 10 minutes) is recorded as “did not suffer statistically significant degradation”. In addition, in the data set with CB1 receptor, the “% binding to the CB1 receptor in relation to control” value was 90.27% and 84.41% and 90.19% and 77.88% and 65.39%. Besides, the “% of inhibition of binding of specific control, 1st/2nd measurement” value on human CB2 receptor (1 (unit uncertain)) is 3.5% and 0.3%. For the same molecule, the “% of inhibition of binding of specific control, 1st/2nd measurement” value on human CB2 receptor (10 (unit uncertain)) amounted to 13.1%. Further, the “modulation in binding of the radioligand (in words)” value at human CB2 receptor (conditions tested) is “did not provide significant modulation”. In addition, the inhibition at 1 µM on human CB1 receptor (1 µM, radioligand agonist CP55940, read-out: % of inhibition of binding of specific control, Mean value) was -74.6%. The inhibition at 10 µM at human CB1 receptor (10 µM, radioligand agonist CP55940, read-out: % of inhibition of binding of specific control, Mean value) was -9.9%. Besides, the “clinical symptoms (Clinical Score)” value in data set [2] was “impressive reduction of clinical symptoms”. Moreover, in the data set with pain threshold (After 3 h), the “pain threshold, force” value is 80 grams (2×) and 70 grams (3×) and 75 grams. Moreover, in the data set on pain threshold (Immediate), the “pain threshold, force” value was 70 grams and 75 grams (3×) and 80 grams and 60 grams. For the same molecule, the “greater pain threshold compared to PVNFKF” value with pain threshold (after 3 h) is 50.1%.

B1: tetrapeptide SEQ ID No. 1 (peptide)
peptide: NFKF
notes: Synthetic peptide; for the radioligand assays it was a 10 mM stock solution in DMSO
Turning to B1, in data set [3], the binding result is “no binding (tested: 1 and 10 µM)”.
